ChEMBL document CHEMBL1128664, “FPL 64176: The effect of the chain length separating the two aryl groups on calcium agonist activity” (Bioorg Med Chem Lett, 1995)
Activity calls are given as the source filed them. The rule behind the calls is not given here.

Columns and labels:
GH3 [1] = assay: Effect on K+ stimulated [Ca2+] influx in GH3 cells at 10e-6 concentration; format: functional, Rattus norvegicus
GH3 [2] = assay: Maximal stimulation of Ca 2+ uptake was determined; no significant effect; format: functional, cell-based; conditions: Rattus norvegicus
GH3 [3] = assay: Effect on K+ stimulated [Ca2+] influx in GH3 cells at 10e-5 concentration; format: functional, Rattus norvegicus
GH3 [4] = assay: Effect on K+ stimulated [Ca2+] influx in GH3 cells at 10e-8 concentration; format: functional, Rattus norvegicus
GH3 [5] = assay: Effect on K+ stimulated [Ca2+] influx in GH3 cells at 10e-7 concentration; format: functional, Rattus norvegicus
GH3 [6] = assay: Concentration required for enhancing calcium influx into GH 3 cells was determined; format: functional, cell-based; conditions: Rattus norvegicus
GH3 [7] = assay: Maximal stimulation of Ca 2+ uptake was determined; format: functional, Rattus norvegicus
GH3 [8] = assay: Concentration required for 84% enhancing calcium influx intoGH 3 cells was determined; format: functional, cell-based; conditions: Rattus norvegicus

Structure (SMILES)	EC50 (GH3 [6])	EC50 (GH3 [8])	Increase (GH3 [1])	Stimulation (GH3 [2])	Increase (GH3 [3])	Increase (GH3 [4])	Increase (GH3 [5])	Stimulation (GH3 [7])
COC(=O)c1c(C)[nH]c(C)c1C(=O)c1ccccc1-c1ccccc1			-8%	inactive	0%	0%	-8%	
COC(=O)c1c(C)[nH]c(C)c1C(=O)c1ccccc1CCc1ccccc1	207 nM		340%		350%	0%	120%	420%
COC(=O)c1c(C)[nH]c(C)c1C(=O)c1ccccc1Cc1ccccc1	140 nM		240%		280%	20%	140%	298%

Further lines, with some results ahead:

EC50 (GH3 [6])	EC50 (GH3 [8])	Structure (SMILES)	Increase (GH3 [1])	Stimulation (GH3 [2])	Increase (GH3 [3])	Increase (GH3 [4])	Increase (GH3 [5])	Stimulation (GH3 [7])
614 nM		COC(=O)c1c(C)[nH]c(C)c1C(=O)c1ccccc1CCCc1ccccc1	160%		220%	-8%	0%	265%
	10000 nM	COC(=O)c1c(C)[nH]c(C)c1C(=O)c1ccccc1CCCCc1ccccc1	80%	inactive	20%	0%	20%	
